{
  "source": "ChEMBL document CHEMBL4800730",
  "about": "(2021)",
  "key": {"[1]": {"molecular_target": "Tyrosine-protein kinase ABL1 (Homo sapiens) (UniProt P00519)", "experiment": "ABL1 SelectScreen Kinase panel (LifeTechnologies)", "settings": "Compound concentration 1.0 uM"}, "[2]": {"molecular_target": "Serine/threonine-protein kinase DCLK2 (Homo sapiens) (UniProt Q8N568)", "sequence (Q8N568 whole entry)": "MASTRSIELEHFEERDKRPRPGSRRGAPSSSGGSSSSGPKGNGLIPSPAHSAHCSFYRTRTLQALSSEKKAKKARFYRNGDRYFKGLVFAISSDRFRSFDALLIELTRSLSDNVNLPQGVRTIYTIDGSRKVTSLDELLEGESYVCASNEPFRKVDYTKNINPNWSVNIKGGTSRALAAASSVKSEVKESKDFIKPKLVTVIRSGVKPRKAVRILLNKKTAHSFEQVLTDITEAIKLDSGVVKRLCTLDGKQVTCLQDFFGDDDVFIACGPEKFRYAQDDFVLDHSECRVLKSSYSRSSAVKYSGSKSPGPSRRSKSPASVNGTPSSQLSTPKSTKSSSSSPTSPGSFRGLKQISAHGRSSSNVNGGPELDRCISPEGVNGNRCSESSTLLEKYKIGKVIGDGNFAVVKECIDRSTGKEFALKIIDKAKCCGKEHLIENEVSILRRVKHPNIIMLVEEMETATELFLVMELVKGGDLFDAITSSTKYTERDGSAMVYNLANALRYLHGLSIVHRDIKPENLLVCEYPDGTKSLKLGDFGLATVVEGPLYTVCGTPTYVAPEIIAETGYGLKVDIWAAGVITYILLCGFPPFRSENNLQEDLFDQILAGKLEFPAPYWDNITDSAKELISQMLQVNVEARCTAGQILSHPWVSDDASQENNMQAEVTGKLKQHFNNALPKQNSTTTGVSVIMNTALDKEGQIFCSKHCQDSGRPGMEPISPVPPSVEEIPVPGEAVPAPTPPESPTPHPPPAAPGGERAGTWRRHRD", "experiment": "DCAMKL2 (DCK2) SelectScreen Kinase panel (LifeTechnologies)", "settings": "Compound concentration 1.0 uM"}, "[3]": {"molecular_target": "Rho-associated protein kinase 2 (Homo sapiens) (UniProt O75116)", "experiment": "ROCK2 SelectScreen Kinase panel (LifeTechnologies)", "settings": "Compound concentration 1.0 uM"}, "[4]": {"molecular_target": "AMPK alpha2/beta1/gamma1 (Homo sapiens) (UniProt P54646+P54619+Q9Y478)", "experiment": "AMPK A2/B1/G1 SelectScreen Kinase panel (LifeTechnologies)", "format": "protein-complex assay", "settings": "Compound concentration 1.0 uM"}, "[5]": {"molecular_target": "Alpha-2C adrenergic receptor (Homo sapiens) (UniProt P18825)", "settings": "Compound concentration 10.0 uM"}, "[6]": {"molecular_target": "Alpha-1D adrenergic receptor (Homo sapiens) (UniProt P25100)", "sequence (P25100 whole entry)": "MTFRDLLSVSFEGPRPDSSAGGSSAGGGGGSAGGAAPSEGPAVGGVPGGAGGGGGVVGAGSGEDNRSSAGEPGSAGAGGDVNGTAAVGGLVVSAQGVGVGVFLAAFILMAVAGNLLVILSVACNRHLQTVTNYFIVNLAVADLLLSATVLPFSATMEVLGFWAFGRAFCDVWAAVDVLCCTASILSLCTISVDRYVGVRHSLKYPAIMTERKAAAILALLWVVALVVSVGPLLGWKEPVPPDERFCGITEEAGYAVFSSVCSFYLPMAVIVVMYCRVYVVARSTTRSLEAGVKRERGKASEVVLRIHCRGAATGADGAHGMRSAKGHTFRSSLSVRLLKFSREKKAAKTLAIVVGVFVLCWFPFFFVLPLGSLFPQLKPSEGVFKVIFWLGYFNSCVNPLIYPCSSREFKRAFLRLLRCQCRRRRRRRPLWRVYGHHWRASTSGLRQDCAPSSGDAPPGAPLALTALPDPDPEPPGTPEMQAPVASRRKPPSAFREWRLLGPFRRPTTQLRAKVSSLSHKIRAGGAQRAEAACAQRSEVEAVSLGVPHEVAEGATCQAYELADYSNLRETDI", "settings": "Compound concentration 10.0 uM"}, "[7]": {"molecular_target": "5-hydroxytryptamine receptor 1A (Homo sapiens) (UniProt P08908)", "settings": "Compound concentration 10.0 uM"}, "[8]": {"molecular_target": "Serine/threonine-protein kinase PAK 4 (Homo sapiens) (UniProt O96013)", "sequence (O96013 whole entry, looked up)": "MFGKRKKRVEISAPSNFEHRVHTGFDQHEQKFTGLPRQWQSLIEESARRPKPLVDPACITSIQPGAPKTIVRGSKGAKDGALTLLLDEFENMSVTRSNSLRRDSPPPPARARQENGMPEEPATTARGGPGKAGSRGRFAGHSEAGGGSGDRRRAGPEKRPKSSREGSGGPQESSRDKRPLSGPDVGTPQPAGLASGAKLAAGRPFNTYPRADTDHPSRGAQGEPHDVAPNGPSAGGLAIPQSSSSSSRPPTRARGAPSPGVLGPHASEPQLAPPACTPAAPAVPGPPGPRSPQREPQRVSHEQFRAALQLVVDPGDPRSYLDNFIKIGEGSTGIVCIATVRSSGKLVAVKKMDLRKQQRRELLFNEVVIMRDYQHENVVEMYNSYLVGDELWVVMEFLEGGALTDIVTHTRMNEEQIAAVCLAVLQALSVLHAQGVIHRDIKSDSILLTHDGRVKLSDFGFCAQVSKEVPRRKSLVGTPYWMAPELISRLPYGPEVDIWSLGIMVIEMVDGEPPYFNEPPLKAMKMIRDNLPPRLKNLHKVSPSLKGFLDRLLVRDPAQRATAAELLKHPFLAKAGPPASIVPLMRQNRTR", "experiment": "PAK4 SelectScreen Kinase panel (LifeTechnologies)", "settings": "Compound concentration 1.0 uM"}, "[9]": {"molecular_target": "5-hydroxytryptamine receptor 2C (Homo sapiens) (UniProt P28335)", "settings": "Compound concentration 10.0 uM"}, "[10]": {"molecular_target": "Alpha-1A adrenergic receptor (Homo sapiens) (UniProt P35348)", "settings": "Compound concentration 10.0 uM"}, "[11]": {"molecular_target": "Epidermal growth factor receptor (Homo sapiens) (UniProt P00533)", "experiment": "EGFR (ErbB1) SelectScreen Kinase panel (LifeTechnologies)", "settings": "Compound concentration 1.0 uM"}, "[12]": {"molecular_target": "Mast/stem cell growth factor receptor Kit (Homo sapiens) (UniProt P10721)", "experiment": "KIT SelectScreen Kinase panel (LifeTechnologies)", "settings": "Compound concentration 1.0 uM"}, "[13]": {"molecular_target": "Aurora kinase B (Homo sapiens) (UniProt Q96GD4)", "sequence (Q96GD4 whole entry)": "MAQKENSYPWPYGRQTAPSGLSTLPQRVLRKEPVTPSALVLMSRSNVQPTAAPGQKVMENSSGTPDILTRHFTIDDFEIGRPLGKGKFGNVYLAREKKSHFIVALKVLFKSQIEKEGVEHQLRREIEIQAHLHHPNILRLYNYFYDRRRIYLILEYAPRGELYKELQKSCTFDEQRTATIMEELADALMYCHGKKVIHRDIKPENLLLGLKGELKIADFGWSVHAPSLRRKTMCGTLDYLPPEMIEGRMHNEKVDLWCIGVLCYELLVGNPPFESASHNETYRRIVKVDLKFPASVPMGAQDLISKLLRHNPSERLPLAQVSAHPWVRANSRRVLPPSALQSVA", "experiment": "AURKB (Aurora B) SelectScreen Kinase panel (LifeTechnologies)", "settings": "Compound concentration 1.0 uM"}, "[14]": {"molecular_target": "Serine/threonine-protein kinase PAK 1 (Homo sapiens) (UniProt Q13153)", "experiment": "PAK1 SelectScreen Kinase panel (LifeTechnologies)", "settings": "Compound concentration 1.0 uM"}, "[15]": {"molecular_target": "Tyrosine-protein kinase BTK (Homo sapiens) (UniProt Q06187)", "experiment": "BTK SelectScreen Kinase panel (LifeTechnologies)", "settings": "Compound concentration 1.0 uM"}, "[16]": {"experiment": "NanoBRET assay (AKT1)", "settings": "Homo sapiens"}, "[17]": {"molecular_target": "3-phosphoinositide-dependent protein kinase 1 (Homo sapiens) (UniProt O15530)", "experiment": "PDK1 Direct SelectScreen Kinase panel (LifeTechnologies)", "settings": "Compound concentration 1.0 uM"}, "Histamine H2 receptor": {"molecular_target": "Histamine H2 receptor (Homo sapiens, UniProt P25021)", "sequence (P25021 whole entry)": "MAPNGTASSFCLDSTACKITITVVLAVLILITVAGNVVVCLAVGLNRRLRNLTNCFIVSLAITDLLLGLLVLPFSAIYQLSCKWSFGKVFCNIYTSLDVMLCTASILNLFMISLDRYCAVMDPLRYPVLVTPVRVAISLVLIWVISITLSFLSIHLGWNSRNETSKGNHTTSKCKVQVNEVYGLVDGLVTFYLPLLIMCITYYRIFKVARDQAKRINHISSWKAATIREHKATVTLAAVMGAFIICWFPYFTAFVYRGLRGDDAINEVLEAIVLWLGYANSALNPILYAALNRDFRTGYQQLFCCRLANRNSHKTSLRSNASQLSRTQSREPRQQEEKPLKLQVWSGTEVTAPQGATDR", "experiment": "GPCRScan assay: inhibition of H2", "set-up": "radioligand conc. used [nm] 0.02 – 0.05, parental cells Stable HEK"}, "[18]": {"molecular_target": "Sodium-dependent serotonin transporter (Homo sapiens) (UniProt P31645)", "settings": "Compound concentration 10.0 uM"}, "[19]": {"molecular_target": "Alpha-1B adrenergic receptor (Homo sapiens) (UniProt P35368)", "sequence (P35368 whole entry)": "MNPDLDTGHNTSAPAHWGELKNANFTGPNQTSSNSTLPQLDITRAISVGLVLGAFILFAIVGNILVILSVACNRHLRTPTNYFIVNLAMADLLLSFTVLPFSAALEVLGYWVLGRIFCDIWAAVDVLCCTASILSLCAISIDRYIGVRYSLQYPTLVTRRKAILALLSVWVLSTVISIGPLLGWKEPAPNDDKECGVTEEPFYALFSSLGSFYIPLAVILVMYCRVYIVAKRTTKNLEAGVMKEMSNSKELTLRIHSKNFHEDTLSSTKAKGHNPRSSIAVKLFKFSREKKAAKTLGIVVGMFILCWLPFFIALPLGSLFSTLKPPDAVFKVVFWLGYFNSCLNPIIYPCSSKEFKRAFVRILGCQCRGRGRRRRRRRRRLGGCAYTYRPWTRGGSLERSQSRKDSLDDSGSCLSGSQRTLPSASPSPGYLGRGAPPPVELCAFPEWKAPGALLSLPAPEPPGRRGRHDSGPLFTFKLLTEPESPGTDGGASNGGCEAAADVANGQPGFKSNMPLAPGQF", "settings": "Compound concentration 10.0 uM"}, "[20]": {"molecular_target": "Beta-2 adrenergic receptor (Homo sapiens) (UniProt P07550)", "settings": "Compound concentration 10.0 uM"}, "[21]": {"molecular_target": "Aurora kinase A (Homo sapiens) (UniProt O14965)", "experiment": "AURKA (Aurora A) SelectScreen Kinase panel (LifeTechnologies)", "settings": "Compound concentration 1.0 uM"}, "[22]": {"molecular_target": "Rhodopsin kinase GRK7 (Homo sapiens) (UniProt Q8WTQ7)", "experiment": "GRK7 SelectScreen Kinase panel (LifeTechnologies)", "settings": "Compound concentration 1.0 uM"}, "[23]": {"molecular_target": "5-hydroxytryptamine receptor 2A (Homo sapiens) (UniProt P28223)", "settings": "Compound concentration 10.0 uM"}, "[24]": {"molecular_target": "Ribosomal protein S6 kinase alpha-3 (Homo sapiens) (UniProt P51812)", "experiment": "RPS6KA3 (RSK2) SelectScreen Kinase panel (LifeTechnologies)", "settings": "Compound concentration 1.0 uM"}, "[25]": {"molecular_target": "cGMP-dependent protein kinase 2 (Homo sapiens) (UniProt Q13237)", "experiment": "PRKG2 (PKG2) SelectScreen Kinase panel (LifeTechnologies)", "settings": "Compound concentration 1.0 uM"}, "[26]": {"molecular_target": "Ribosomal protein S6 kinase alpha-5 (Homo sapiens) (UniProt O75582)", "sequence (O75582 whole entry, looked up)": "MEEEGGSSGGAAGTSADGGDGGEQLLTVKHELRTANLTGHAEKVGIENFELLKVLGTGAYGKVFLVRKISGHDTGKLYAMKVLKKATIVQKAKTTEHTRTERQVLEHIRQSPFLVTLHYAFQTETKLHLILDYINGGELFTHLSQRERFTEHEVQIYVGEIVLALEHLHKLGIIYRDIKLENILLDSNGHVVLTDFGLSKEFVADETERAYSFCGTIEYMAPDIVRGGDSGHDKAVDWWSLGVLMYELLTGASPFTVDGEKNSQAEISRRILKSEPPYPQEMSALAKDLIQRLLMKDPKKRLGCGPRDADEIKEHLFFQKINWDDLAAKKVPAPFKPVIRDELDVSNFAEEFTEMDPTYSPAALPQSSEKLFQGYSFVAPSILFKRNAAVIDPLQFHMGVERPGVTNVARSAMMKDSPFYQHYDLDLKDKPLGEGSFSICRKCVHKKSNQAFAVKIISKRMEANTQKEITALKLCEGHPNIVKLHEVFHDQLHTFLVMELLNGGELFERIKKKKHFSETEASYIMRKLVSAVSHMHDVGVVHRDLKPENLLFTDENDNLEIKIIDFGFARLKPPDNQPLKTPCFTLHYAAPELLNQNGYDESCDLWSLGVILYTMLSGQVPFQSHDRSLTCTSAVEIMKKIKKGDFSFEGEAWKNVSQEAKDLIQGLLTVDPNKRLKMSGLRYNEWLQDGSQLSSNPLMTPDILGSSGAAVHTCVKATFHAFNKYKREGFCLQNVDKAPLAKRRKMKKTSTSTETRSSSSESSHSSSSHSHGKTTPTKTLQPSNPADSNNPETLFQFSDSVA", "experiment": "RPS6KA5 (MSK1) SelectScreen Kinase panel (LifeTechnologies)", "settings": "Compound concentration 1.0 uM"}, "[27]": {"molecular_target": "Ephrin type-B receptor 4 (Homo sapiens) (UniProt P54760)", "experiment": "EPHB4 SelectScreen Kinase panel (LifeTechnologies)", "settings": "Compound concentration 1.0 uM"}, "[28]": {"molecular_target": "Serine/threonine-protein kinase 3 (Homo sapiens) (UniProt Q13188)", "experiment": "STK3 (MST2) SelectScreen Kinase panel (LifeTechnologies)", "settings": "Compound concentration 1.0 uM"}, "[29]": {"molecular_target": "Mitogen-activated protein kinase 1 (Homo sapiens) (UniProt P28482)", "sequence (P28482 whole entry)": "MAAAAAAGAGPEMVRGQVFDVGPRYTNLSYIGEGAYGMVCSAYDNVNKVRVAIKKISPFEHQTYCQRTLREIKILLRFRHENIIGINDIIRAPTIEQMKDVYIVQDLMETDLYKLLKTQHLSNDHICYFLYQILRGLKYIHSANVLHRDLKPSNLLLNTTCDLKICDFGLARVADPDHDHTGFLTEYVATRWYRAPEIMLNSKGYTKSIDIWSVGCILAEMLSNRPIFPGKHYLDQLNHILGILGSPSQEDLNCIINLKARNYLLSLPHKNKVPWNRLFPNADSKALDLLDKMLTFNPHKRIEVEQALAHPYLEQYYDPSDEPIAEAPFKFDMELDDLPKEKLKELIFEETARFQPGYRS", "experiment": "MAPK1 (ERK2) SelectScreen Kinase panel (LifeTechnologies)", "settings": "Compound concentration 1.0 uM"}, "[30]": {"molecular_target": "Alpha-1A adrenergic receptor (Homo sapiens, UniProt P35348)", "experiment": "GPCRScan assay: inhibition of Alpha1A", "set-up": "radioligand conc. used [nm] 0.2 - 1.0, parental cells stable HEK"}, "[31]": {"molecular_target": "Sodium-dependent dopamine transporter (Homo sapiens, UniProt Q01959)", "settings": "Compound concentration 10.0 uM"}, "[32]": {"experiment": "NanoBRET assay (AKT3)", "settings": "Homo sapiens"}, "[33]": {"molecular_target": "DNA-dependent protein kinase catalytic subunit (Homo sapiens) (UniProt P78527)", "experiment": "DNA-PK SelectScreen Kinase panel (LifeTechnologies)", "settings": "Compound concentration 1.0 uM"}, "[34]": {"molecular_target": "Serine/threonine-protein kinase pim-1 (Homo sapiens) (UniProt P11309)", "experiment": "PIM1 SelectScreen Kinase panel (LifeTechnologies)", "settings": "Compound concentration 1.0 uM"}, "[35]": {"molecular_target": "5-hydroxytryptamine receptor 6 (Homo sapiens) (UniProt P50406)", "settings": "Compound concentration 10.0 uM"}, "[36]": {"molecular_target": "AMP-activated protein kinase (AMPK) alpha-1/beta-1/gamma-1 (Homo sapiens) (UniProt P54619+Q9Y478+Q13131)", "experiment": "AMPK A1/B1/G1 SelectScreen Kinase panel (LifeTechnologies)", "format": "protein-complex assay", "settings": "Compound concentration 1.0 uM"}, "[37]": {"molecular_target": "Serine/threonine-protein kinase Sgk2 (Homo sapiens) (UniProt Q9HBY8)", "experiment": "SGK2 SelectScreen Kinase panel (LifeTechnologies)", "settings": "Compound concentration 1.0 uM"}, "[38]": {"molecular_target": "cGMP-dependent protein kinase 1 (Homo sapiens) (UniProt Q13976)", "experiment": "PRKG1 SelectScreen Kinase panel (LifeTechnologies)", "settings": "Compound concentration 1.0 uM"}, "[39]": {"molecular_target": "Alpha-2B adrenergic receptor (Homo sapiens) (UniProt P18089)", "settings": "Compound concentration 10.0 uM"}, "[40]": {"molecular_target": "Mitogen-activated protein kinase 14 (Homo sapiens) (UniProt Q16539)", "experiment": "MAPK14 (p38 alpha) Direct SelectScreen Kinase panel (LifeTechnologies)", "settings": "Compound concentration 1.0 uM"}, "[41]": {"molecular_target": "Sigma intracellular receptor 2 (Homo sapiens) (UniProt Q5BJF2)", "sequence (Q5BJF2 whole entry)": "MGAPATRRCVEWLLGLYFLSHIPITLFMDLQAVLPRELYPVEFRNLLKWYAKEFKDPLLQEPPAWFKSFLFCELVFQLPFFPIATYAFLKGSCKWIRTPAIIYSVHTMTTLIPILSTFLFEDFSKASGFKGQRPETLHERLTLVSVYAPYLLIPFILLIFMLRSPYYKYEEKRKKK", "settings": "Compound concentration 10.0 uM"}, "[42]": {"molecular_target": "5-hydroxytryptamine receptor 2B (Homo sapiens) (UniProt P41595)", "sequence (P41595 whole entry)": "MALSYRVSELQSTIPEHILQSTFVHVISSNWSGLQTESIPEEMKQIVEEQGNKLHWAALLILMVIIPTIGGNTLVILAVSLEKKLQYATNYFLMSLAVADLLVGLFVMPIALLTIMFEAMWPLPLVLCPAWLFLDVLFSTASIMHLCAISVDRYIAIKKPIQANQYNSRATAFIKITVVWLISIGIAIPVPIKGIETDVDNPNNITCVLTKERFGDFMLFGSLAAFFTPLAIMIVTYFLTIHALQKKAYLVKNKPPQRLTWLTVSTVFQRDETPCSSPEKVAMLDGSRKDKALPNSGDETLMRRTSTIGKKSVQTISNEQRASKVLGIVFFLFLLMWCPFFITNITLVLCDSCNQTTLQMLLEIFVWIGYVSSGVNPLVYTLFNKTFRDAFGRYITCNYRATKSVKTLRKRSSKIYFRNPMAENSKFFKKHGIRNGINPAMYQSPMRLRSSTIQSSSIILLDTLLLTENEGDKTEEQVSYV", "settings": "Compound concentration 10.0 uM"}, "[43]": {"molecular_target": "Tyrosine-protein kinase Lck (Homo sapiens) (UniProt P06239)", "experiment": "LCK SelectScreen Kinase panel (LifeTechnologies)", "settings": "Compound concentration 1.0 uM"}, "[44]": {"molecular_target": "5-hydroxytryptamine receptor 1D (Homo sapiens) (UniProt P28221)", "settings": "Compound concentration 10.0 uM"}},
  "note": "Active and inactive are the calls of the source. The calls are words filed in the database; no cut-off is given here.",
  "data": [
    {"compound": "C=CC(=O)Nc1ccc2[nH]c(=O)n(C3CCN(Cc4ccc(-c5nc6cc[nH]c(=O)c6cc5-c5ccccc5)cc4)CC3)c2c1", "note": "[Borussertib]", "values": [
      {"measurement": "inhibition", "setting": "[1]", "result": 2, "unit": "%"},
      {"measurement": "inhibition", "setting": "[2]", "result": -2, "unit": "%"},
      {"measurement": "inhibition", "setting": "[3]", "result": -3, "unit": "%"},
      {"measurement": "inhibition", "setting": "[4]", "result": 20, "unit": "%"},
      {"measurement": "inhibition", "setting": "[5]", "result": -7.2, "unit": "%"},
      {"measurement": "inhibition", "setting": "[6]", "result": 22.1, "unit": "%"},
      {"measurement": "inhibition", "setting": "[7]", "result": 15, "unit": "%"},
      {"measurement": "inhibition", "setting": "[8]", "result": 7, "unit": "%"},
      {"measurement": "inhibition", "setting": "[9]", "result": -8.03, "unit": "%"},
      {"measurement": "inhibition", "setting": "[10]", "result": 72.2, "unit": "%"},
      {"measurement": "inhibition", "setting": "[11]", "result": 2, "unit": "%"},
      {"measurement": "inhibition", "setting": "[12]", "result": 8, "unit": "%"},
      {"measurement": "inhibition", "setting": "[13]", "result": 7, "unit": "%"},
      {"measurement": "inhibition", "setting": "[14]", "result": -9, "unit": "%"},
      {"measurement": "inhibition", "setting": "[15]", "result": 6, "unit": "%"},
      {"measurement": "EC50", "setting": "[16]", "result": "26 nM (active)"},
      {"measurement": "IC50", "setting": "[16]", "result": "21 nM (active)"},
      {"measurement": "inhibition", "setting": "[17]", "result": -4, "unit": "%"},
      {"measurement": "Ki", "setting": "Histamine H2 receptor; read-out: Ki", "result": 950, "unit": "nM"},
      {"measurement": "Ki", "setting": "Histamine H2 receptor; read-out: pKi (converted)", "result": 813, "unit": "nM"},
      {"measurement": "inhibition", "setting": "[18]", "result": 2.16, "unit": "%"},
      {"measurement": "inhibition", "setting": "[19]", "result": 52.3, "unit": "%"},
      {"measurement": "inhibition", "setting": "[20]", "result": 18.3, "unit": "%"},
      {"measurement": "inhibition", "setting": "[21]", "result": 15, "unit": "%"},
      {"measurement": "inhibition", "setting": "[22]", "result": -6, "unit": "%"},
      {"measurement": "inhibition", "setting": "[23]", "result": -6.26, "unit": "%"},
      {"measurement": "inhibition", "setting": "[24]", "result": 21, "unit": "%"},
      {"measurement": "inhibition", "setting": "[25]", "result": 2, "unit": "%"},
      {"measurement": "inhibition", "setting": "[26]", "result": 2, "unit": "%"},
      {"measurement": "inhibition", "setting": "[27]", "result": 7, "unit": "%"},
      {"measurement": "inhibition", "setting": "[28]", "result": 1, "unit": "%"},
      {"measurement": "inhibition", "setting": "[29]", "result": 3, "unit": "%"},
      {"measurement": "Ki", "setting": "[30]", "result": 2660, "unit": "nM"},
      {"measurement": "inhibition", "setting": "[31]", "result": 59.7, "unit": "%"},
      {"measurement": "EC50", "setting": "[32]", "result": "29 nM (active)"},
      {"measurement": "IC50", "setting": "[32]", "result": "4300 nM (not active)"},
      {"measurement": "inhibition", "setting": "[33]", "result": 0, "unit": "%"},
      {"measurement": "inhibition", "setting": "[34]", "result": 0, "unit": "%"},
      {"measurement": "inhibition", "setting": "[35]", "result": -3.73, "unit": "%"},
      {"measurement": "inhibition", "setting": "[36]", "result": 14, "unit": "%"},
      {"measurement": "inhibition", "setting": "[37]", "result": 6, "unit": "%"},
      {"measurement": "inhibition", "setting": "[38]", "result": 5, "unit": "%"},
      {"measurement": "inhibition", "setting": "[39]", "result": 4.03, "unit": "%"},
      {"measurement": "inhibition", "setting": "[40]", "result": -1, "unit": "%"},
      {"measurement": "inhibition", "setting": "[41]", "result": 24.8, "unit": "%"},
      {"measurement": "inhibition", "setting": "[42]", "result": -2.56, "unit": "%"},
      {"measurement": "inhibition", "setting": "[43]", "result": 8, "unit": "%"},
      {"measurement": "inhibition", "setting": "[44]", "result": 12.1, "unit": "%"}
    ]}
  ]
}
